From patent EP0287128A1, “Antitumor agent” (RESEARCH CORPORATION TECHNOLOGIES, INC., priority 1987, dated 1988) come the findings set out here.

For series [1], the system named is Lewis lung carcinoma. As to the kind of experiment: in vivo. The source says: (§1) The tumor tissue was obtained from mice bearing 7 to 10 day old tumors. To obtain the tumors, the animals were sacrificed by cervical dislocation. Tumors were removed aseptically and placed into petri dishes containing ice-cold phosphate buffered saline. Tumors were debrided, necrotic tissue was removed and viable tissue was cut into 2-3 mm fragments. These fragments were loaded into 13-gauge trochars for implantation. Animals were weighed prior to each i.p. injection, which began one day after implantation unless otherwise noted, so that the volume of injection could be adjusted to their individual weight.
(§2) Animals were implanted with Lewis lung carcinoma. Five animals were given FdC (12mg/kg) + H₄U 25mg/kg + BAU 9mg/kg 1/day × 7 days starting on day 1. Comparisons included FUra (25mg/kg) and FUra + BAU (10mg/kg).
(§3) Animals were implanted with Lewis lung carcinoma. Seven animals were given FdC (12mg/kg) + H₄U (25mg/kg) + BAU (30mg/kg). Comparisons included FUra 25 mg/kg and FUra + BAU (30mg/kg). The treatment schedule was as in Example 1A.
(§4) Animals were implanted with Lewis lung carcinoma. The treatment schedule was as described above. A comparison was made with FdU tested at its maximum tolerated dose, 75mg/kg. […] "Day of breakout" indicates the day tumor growth was first noticed in a group of animals in which tumor growth was arrested or in which tumor regression occurred.
(§5) Mice were implanted bilaterally with Lewis lung carcinoma (see Table 3).
(§6) Animals were implanted with Lewis lung carcinoma (see Table 4).

Series [2] relates to mammary adenocarcinoma-755 in its ascitic form. As to the kind of experiment: Mammary adenocarcinoma-755, ascitic form, injected i.p. into mice. It counts as in vivo, BD2F₁ mice. The settings on record: for Day of Death / # Cures /6 mice / % Cures / mean day of death / Maximum Weight Loss / T/C: Table 7; for Day of Death: individual animals; for Day of Death / # Cures /6 mice / % Cures / mean day of death / T/C: mg/kg: FdC 12, H4U 25, BAU 10, FUra 26 (with BAU); for Maximum Weight Loss: mg/kg: FdC 12, H4U 25, BAU 10, FUra 26 (with BAU; alone not given); for T/C: not including cures. The source says:
Forty-eight hours later (day 2) treatment 1/day × 7) was initiated.

Series [3] in a line: in vivo. To be noted: mouse, in vivo.
Excerpt: as §1, §2, §3, §4, §5, §6

Where [4] appears, read: Example 2, BAU 30 mg/kg, H4U 25 mg/kg, administered without a fluorinated pyrimidine analog.
Setting [5] is: Table 3, one cycle (I) or no cycle mark, mg/kg: FdU 70, FdC 12, H4U 25, BAU 30 where given.

As to `O=c1[nH]c(=O)n(COCCO)cc1Cc1ccccc1` [BAU, benzacyclouridine], in series [1] (setting [4]), the cures result is reported as “no cures”, the “mean day of death” value is “no increase” and the “tumor inhibition” value was “no significant tumor inhibition”.

For the compound `O=c1[nH]cc(F)c(=O)[nH]1` [FUra, 5-fluorouracil], the “# of cures/6” value in series [2] (Table 6, inoculum 10^7 cells, mg/kg: FdC 12, H4U 25, BAU 10, FUra 25, FdU 60) is given as “No cures”. Besides, in series [2] (inoculum 5 x 10^5 cells), the “Day of Death” value is recorded as 17,18 21,22, the “# Cures /6 mice” value is on record as 1, the “% Cures” value was found to be 17% and the “Maximum Weight Loss” value is listed as 17.4. The same compound had a T/C in series [2] (inoculum 5 x 10^5 cells) of 1.51. In addition, in series [2] (inoculum 10^5 cells), the “Day of Death” value is recorded as 17,19 21,33, the “# Cures /6 mice” value is reported as 2, the “% Cures” value is on record as 33% and the “mean day of death” value was found to be 20.0. In series [2] (inoculum 10^5 cells), the “Maximum Weight Loss” value is 17.0 and the T/C is reported as 1.57. The “mean day of death” value in series [2] (inoculum 5 x 10^5 cells, control 12.5) turned out to be 19.2. The cures result in series [1] (Examples 1A and 1B together, i.p. 1/day x 7 days from day 1, mg/kg: FdC 12, H4U 25, BAU 9 or 30, FUra 25) was “No cures”.

As for `O=c1[nH]c(=O)n([C@H]2C[C@H](O)[C@@H](CO)O2)cc1F` [FdU, 5-fluorodeoxyuridine], the MTD at 7 days in series [3] was found to be 75 mg/kg. The “% Tumor Inhibition” value came out at 83% in series [1] (Table 3, day 10, one cycle (I) or no cycle mark, mg/kg: FdU 70, FdC 12, H4U 25, BAU 30 where given); 74% in series [1] (Table 3, day 14, one cycle (I) or no cycle mark, mg/kg: FdU 70, FdC 12, H4U 25, BAU 30 where given); 58% in series [1] (Table 3, day 18, one cycle (I) or no cycle mark, mg/kg: FdU 70, FdC 12, H4U 25, BAU 30 where given); 42% in series [1] (Table 3, day 22, one cycle (I) or no cycle mark, mg/kg: FdU 70, FdC 12, H4U 25, BAU 30 where given); 31% in series [1] (Table 3, day 26, one cycle (I) or no cycle mark, mg/kg: FdU 70, FdC 12, H4U 25, BAU 30 where given); 19% in series [1] (Table 3, day 38, one cycle (I) or no cycle mark, mg/kg: FdU 70, FdC 12, H4U 25, BAU 30 where given). Moreover, the T/C in series [1] (Table 3, mean day of death T/C, one cycle (I) or no cycle mark, mg/kg: FdU 70, FdC 12, H4U 25, BAU 30 where given, * not including cures) is given as 1.24. For the same compound, the “# Cures /6” value in series [1] (setting [5]) was found to be 0. Further, the “# Toxic Deaths /6” value in series [1] (setting [5]) turned out to be 0. For the same compound, in series [1] (setting [5]), the “Maximum % Weight Loss” value is recorded as 19%. Besides, in series [1] (Table 3, one cycle (I) or no cycle mark, mg/kg: FdU 70, FdC 12, H4U 25, BAU 30 where given, * not including cures, control 21.1), the “Mean Day of Death” value was 26.0.

With `O=C1NC(O)CCN1[C@@H]1O[C@H](CO)[C@@H](O)[C@H]1O` (some centres unmarked) [H₄U, tetrahydrouridine], in series [1] (setting [4]), the cures result is “no cures”, the “mean day of death” value was “no increase” and the “tumor inhibition” value is given as “no significant tumor inhibition”.
